# Literature values in patent publication US20130046087A1, “Substituted Cyclodextrin Derivatives Useful As Intermediates For Producing Biologically Active Materials” (Arcarios BV, priority 2010, published 2013).
# Test system: rabbit model of experimental osteoarthritis
# Settings: subcutaneously administered, per Osteoarthritis and Cartilage (2008) 16:986-993
substance,measurement,value
β-cyclodextrin polysulfate,effect on cartilage lesions and osteocyte formation in the affected joints,reduced the cartilage lesions and osteocyte formation
